From PubChem BioAssay (NCI)
Values joined by “and” are separate entries in the source; they are usually repeats but may differ in a detail not shown here. Identical values can stand only once.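 Cells were grown in 96-well plates and exposed to each compound for 48 hours at five concentrations; endpoints were interpolated linearly between bracketing concentrations, or set to the highest concentration if not reached. At the GI50, growth is halved. TGI: total growth inhibition.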

How the values were obtained:
Test in all cases: growth of human tumour cells (NCI), 48 h
[1] = tested on: 786-0 renal
[2] = tested on: A498 renal
[3] = tested on: A549 NSCLC
[4] = tested on: ACHN renal
[5] = tested on: BT-549 breast
[6] = tested on: CAKI-1 renal
[7] = tested on: CCRF-CEM leukemia
[8] = tested on: COLO 205 colon
[9] = tested on: DU-145 prostate
[10] = tested on: EKVX NSCLC
[11] = tested on: HCC-2998 colon
[12] = tested on: HCT-116 colon
[13] = tested on: HCT-15 colon
[14] = tested on: HL-60(TB) leukemia
[15] = tested on: HOP-62 NSCLC
[16] = tested on: HOP-92 NSCLC
[17] = tested on: HS 578T breast
[18] = tested on: HT29 colon
[19] = tested on: IGROV1 ovarian
[20] = tested on: K-562 leukemia
[21] = tested on: KM12 colon
[22] = tested on: LOX IMVI melanoma
[23] = tested on: M14 melanoma
[24] = tested on: MALME-3M melanoma
[25] = tested on: MCF7 breast
[26] = tested on: MDA-MB-231 breast
[27] = tested on: MDA-MB-435
[28] = tested on: MDA-MB-468 breast
[29] = tested on: MOLT-4 leukemia
[30] = tested on: NCI-H226 lung
[31] = tested on: NCI-H23 lung
[32] = tested on: NCI-H460 lung
[33] = tested on: NCI-H522 lung
[34] = tested on: NCI/ADR-RES ovarian
[35] = tested on: OVCAR-3 ovarian
[36] = tested on: OVCAR-4 ovarian
[37] = tested on: OVCAR-5 ovarian
[38] = tested on: OVCAR-8 ovarian
[39] = tested on: PC-3 prostate
[40] = tested on: RPMI-8226 leukemia
[41] = tested on: RXF 393 renal
[42] = tested on: SF-268 CNS
[43] = tested on: SF-295 CNS
[44] = tested on: SF-539 CNS
[45] = tested on: SK-MEL-2 melanoma
[46] = tested on: SK-MEL-28 melanoma
[47] = tested on: SK-MEL-5 melanoma
[48] = tested on: SK-OV-3 ovarian
[49] = tested on: SN12C renal
[50] = tested on: SNB-19 CNS
[51] = tested on: SNB-75 CNS
[52] = tested on: SR leukemia
[53] = tested on: SW-620 colon
[54] = tested on: T-47D breast
[55] = tested on: TK-10 renal
[56] = tested on: U251 CNS
[57] = tested on: UACC-257 melanoma
[58] = tested on: UACC-62 melanoma
[59] = tested on: UO-31 renal

O=C(c1cc2cc(OCCCN3CCC3)ccc2[nH]1)N1C[C@@H](CCl)c2c1cc(OCc1ccccc1)c1ccccc21
GI50 [1]: 293 nM and 266 nM | TGI [1]: 913 nM and 1710 nM | GI50 [2]: 235 nM | TGI [2]: 633 nM | GI50 [3]: 157 nM and 161 nM | TGI [3]: 626 nM and 2540 nM | GI50 [4]: 78.5 nM and 34.6 nM | TGI [4]: 248 nM and 96.7 nM | GI50 [5]: 384 nM and 530 nM | TGI [5]: 1720 nM and 2190 nM | GI50 [6]: 289 nM and 193 nM | TGI [6]: 1500 nM and 1680 nM | GI50 [7]: 845 nM and 408 nM | TGI [7]: 7750 nM and 17500 nM | GI50 [8]: 629 nM and 280 nM | TGI [8]: 1990 nM and 644 nM | GI50 [9]: 254 nM and 82 nM | TGI [9]: 1250 nM and 2920 nM | GI50 [10]: 271 nM and 371 nM | TGI [10]: 1370 nM and 956 nM | GI50 [11]: 255 nM and 319 nM | TGI [11]: 1230 nM and 660 nM | GI50 [12]: 147 nM and 637 nM | TGI [12]: 443 nM and 2460 nM | GI50 [13]: 171 nM and 134 nM | TGI [13]: 838 nM and 787 nM | GI50 [14]: 1220 nM and 442 nM | TGI [14]: 3560 nM and 4050 nM | GI50 [15]: 214 nM and 139 nM | TGI [15]: 694 nM and 647 nM | GI50 [16]: 1160 nM and 504 nM | TGI [16]: 3280 nM and 1830 nM | GI50 [17]: 1250 nM and 746 nM | TGI [17]: 3980 nM and 5990 nM | GI50 [18]: 285 nM and 273 nM | TGI [18]: 1350 nM and 2000 nM | GI50 [19]: 310 nM and 189 nM | TGI [19]: 1470 nM and 1330 nM | GI50 [20]: 302 nM and 251 nM | TGI [20]: 19800 nM | GI50 [21]: 731 nM and 813 nM | TGI [21]: 2220 nM and 10100 nM | GI50 [22]: 132 nM and 56.4 nM | TGI [22]: 427 nM and 451 nM | GI50 [23]: 283 nM and 212 nM | TGI [23]: 1210 nM and 653 nM | GI50 [24]: 481 nM and 276 nM | TGI [24]: 1790 nM and 557 nM | GI50 [25]: 10.5 nM and 3.22 nM | TGI [25]: 324 nM and 851 nM | GI50 [26]: 691 nM and 544 nM | TGI [26]: 2100 nM and 1360 nM | GI50 [27]: 1050 nM and 331 nM | TGI [27]: 2270 nM and 739 nM | GI50 [28]: 43.8 nM | TGI [28]: 130 nM | GI50 [29]: 339 nM and 272 nM | TGI [29]: 4560 nM and 3870 nM | GI50 [30]: 1210 nM and 211 nM | TGI [30]: 4340 nM and 631 nM | GI50 [31]: 186 nM and 73 nM | TGI [31]: 619 nM and 318 nM | GI50 [32]: 121 nM and 17.1 nM | TGI [32]: 469 nM and 1120 nM | GI50 [33]: 1230 nM and 384 nM | TGI [33]: 2870 nM and 929 nM | GI50 [34]: 252 nM | TGI [34]: 1400 nM | GI50 [35]: 1130 nM and 497 nM | TGI [35]: 2620 nM and 1610 nM | GI50 [36]: 1130 nM and 536 nM | TGI [36]: 3010 nM and 1690 nM | GI50 [37]: 302 nM and 345 nM | TGI [37]: 1040 nM and 1060 nM | GI50 [38]: 274 nM and 242 nM | TGI [38]: 1440 nM and 1530 nM | GI50 [39]: 294 nM and 367 nM | TGI [39]: 2630 nM and 4600 nM | GI50 [40]: 941 nM and 496 nM | TGI [40]: 9530 nM and 9500 nM | GI50 [41]: 362 nM and 234 nM | TGI [41]: 1630 nM and 509 nM | GI50 [42]: 437 nM and 332 nM | TGI [42]: 2420 nM and 2040 nM | GI50 [43]: 154 nM and 46.1 nM | TGI [43]: 447 nM and 230 nM | GI50 [44]: 225 nM and 295 nM | TGI [44]: 1000 nM and 663 nM | GI50 [45]: 1090 nM and 374 nM | TGI [45]: 2320 nM and 659 nM | GI50 [46]: 507 nM and 329 nM | TGI [46]: 1800 nM and 749 nM | GI50 [47]: 322 nM and 272 nM | TGI [47]: 1300 nM and 537 nM | GI50 [48]: 401 nM and 453 nM | TGI [48]: 1640 nM and 1720 nM | GI50 [49]: 345 nM and 357 nM | TGI [49]: 1500 nM and 2110 nM | GI50 [50]: 687 nM and 333 nM | TGI [50]: 2330 nM and 2400 nM | GI50 [51]: 1020 nM | TGI [51]: 2210 nM | GI50 [52]: 97.4 nM and 43.9 nM | TGI [52]: 5010 nM | GI50 [53]: 234 nM and 258 nM | TGI [53]: 1560 nM and 1280 nM | GI50 [54]: 375 nM and 202 nM | TGI [54]: 1690 nM and 1040 nM | GI50 [55]: 1530 nM and 562 nM | TGI [55]: 3000 nM and 1420 nM | GI50 [56]: 247 nM and 61.2 nM | TGI [56]: 1030 nM and 2390 nM | GI50 [57]: 792 nM | TGI [57]: 2300 nM | GI50 [58]: 145 nM and 62 nM | TGI [58]: 481 nM and 325 nM | GI50 [59]: 171 nM and 264 nM | TGI [59]: 449 nM and 681 nM
